Laboratory results from patent US20050197350A1, “Novel quinoline, tetrahydroquinazoline, and pyrimidine derivatives and methods of treatment related to the use thereof” (TAISHO PHARMACEUTICAL CO., LTD., priority 2003, published 2005).

system: MCH receptors; test: MCH receptor activity class (method not given); details: class 1-3 by percent of control at 10^-7 M or IC50

SMILES	class
CCOc1ccc2ccccc2c1C(=O)N[C@H]1CC[C@@H](Nc2nc3c(c(N(C)C)n2)CCCC3)CC1 [compound 565]	3 (Class 3 The value of percent of control at 10^−7 M was more than 60% or the value of IC50 was more than 200 nM.)
CN(C)c1nc(N[C@H]2CC[C@@H](NC(=O)c3c(F)c(F)c(F)c(F)c3F)CC2)nc2c1CCCC2 [compound 566]	3 (Class 3 The value of percent of control at 10^−7 M was more than 60% or the value of IC50 was more than 200 nM.)
CN(C)c1nc(N[C@H]2CC[C@@H](NC(=O)c3ccc(SC(F)(F)F)cc3)CC2)nc2c1CCCC2 [compound 567]	3 (Class 3 The value of percent of control at 10^−7 M was more than 60% or the value of IC50 was more than 200 nM.)
CN(C)c1nc(N[C@H]2CC[C@@H](NC(=O)c3sc(Cl)c(Cl)c3Cl)CC2)nc2c1CCCC2 [compound 568]	3 (Class 3 The value of percent of control at 10^−7 M was more than 60% or the value of IC50 was more than 200 nM.)
CN(C)c1nc(N[C@H]2CC[C@@H](NC(=O)COc3cccc(Cl)c3)CC2)nc2c1CCCC2 [compound 569]	1 (Class 1: The value of percent of control at 10^−7 M was less than 40% or the value of IC50 was less than 50 nM.)
Cc1onc(-c2c(Cl)cccc2Cl)c1C(=O)N[C@H]1CC[C@@H](Nc2nc3c(c(N(C)C)n2)CCCC3)CC1 [compound 570]	1 (Class 1: The value of percent of control at 10^−7 M was less than 40% or the value of IC50 was less than 50 nM.)
CN(C)c1nc(N[C@H]2CC[C@@H](NC(=O)c3cccnc3Oc3ccccc3)CC2)nc2c1CCCC2 [compound 571]	2 (Class 2: The value of percent of control at 10^−7 M was from 40% to 60% or the value of IC′50 was from 50 nM to 200 nM.)
CN(C)c1nc(N[C@H]2CC[C@@H](NC(=O)c3cccnc3Sc3ccccc3)CC2)nc2c1CCCC2 [compound 572]	3 (Class 3 The value of percent of control at 10^−7 M was more than 60% or the value of IC50 was more than 200 nM.)
Cc1ccc(Oc2ncccc2C(=O)N[C@H]2CC[C@@H](Nc3nc4c(c(N(C)C)n3)CCCC4)CC2)cc1 [compound 573]	1 (Class 1: The value of percent of control at 10^−7 M was less than 40% or the value of IC50 was less than 50 nM.)
CCCN(CCC)S(=O)(=O)c1ccc(C(=O)N[C@H]2CC[C@@H](Nc3nc4c(c(N(C)C)n3)CCCC4)CC2)cc1 [compound 574]	3 (Class 3 The value of percent of control at 10^−7 M was more than 60% or the value of IC50 was more than 200 nM.)
CN(C)c1nc(N[C@H]2CC[C@@H](NC(=O)C(C)(C)Oc3ccc(Cl)cc3)CC2)nc2c1CCCC2 [compound 575]	3 (Class 3 The value of percent of control at 10^−7 M was more than 60% or the value of IC50 was more than 200 nM.)
CN(C)c1nc(N[C@H]2CC[C@@H](NC(=O)c3cc(-c4ccc(Cl)cc4)oc3C(F)(F)F)CC2)nc2c1CCCC2 [compound 576]	3 (Class 3 The value of percent of control at 10^−7 M was more than 60% or the value of IC50 was more than 200 nM.)
CN(C)c1nc(N[C@H]2CC[C@@H](NC(=O)c3cc(C(C)(C)C)nn3Cc3ccc(Cl)cc3Cl)CC2)nc2c1CCCC2 [compound 577]	3 (Class 3 The value of percent of control at 10^−7 M was more than 60% or the value of IC50 was more than 200 nM.)
CN(C)c1nc(N[C@H]2CC[C@@H](NC(=O)C3=Cc4cc(Cl)ccc4OC3)CC2)nc2c1CCCC2 [compound 578]	3 (Class 3 The value of percent of control at 10^−7 M was more than 60% or the value of IC50 was more than 200 nM.)
CN(C)c1nc(N[C@H]2CC[C@@H](NC(=O)c3ccc(OC(F)(F)F)c(Cl)c3)CC2)nc2c1CCCC2 [compound 579]	3 (Class 3 The value of percent of control at 10^−7 M was more than 60% or the value of IC50 was more than 200 nM.)
Cc1cc(=O)oc2c(OCC(=O)N[C@H]3CC[C@@H](Nc4nc5c(c(N(C)C)n4)CCCC5)CC3)cccc12 [compound 580]	3 (Class 3 The value of percent of control at 10^−7 M was more than 60% or the value of IC50 was more than 200 nM.)
CN(C)c1nc(N[C@H]2CC[C@@H](NC(=O)c3csc(-c4cccs4)n3)CC2)nc2c1CCCC2 [compound 581]	2 (Class 2: The value of percent of control at 10^−7 M was from 40% to 60% or the value of IC′50 was from 50 nM to 200 nM.)
COc1cccc(C(=O)NC[C@H]2CC[C@@H](Nc3nc4c(c(N(C)C)n3)CCCC4)CC2)c1 [compound 582]	3 (Class 3 The value of percent of control at 10^−7 M was more than 60% or the value of IC50 was more than 200 nM.)
CN(C)c1nc(N[C@H]2CC[C@@H](CNC(=O)c3cccc(Br)c3)CC2)nc2c1CCCC2 [compound 583, 3-bromo-N-[(cis-4-{[4-(dimethylamino)-5,6,7,8-tetrahydroquinazolin-2-yl]amino}cyclohexyl)methyl]benzamide]	2 (Class 2: The value of percent of control at 10^−7 M was from 40% to 60% or the value of IC′50 was from 50 nM to 200 nM.)

SMILES	class
CN(C)c1nc(N[C@H]2CC[C@@H](CNC(=O)c3ccc(Br)cc3)CC2)nc2c1CCCC2 [compound 584]	3 (Class 3 The value of percent of control at 10^−7 M was more than 60% or the value of IC50 was more than 200 nM.)
CN(C)c1nc(N[C@H]2CC[C@@H](CNC(=O)c3ccc4nonc4c3)CC2)nc2c1CCCC2 [compound 585]	3 (Class 3 The value of percent of control at 10^−7 M was more than 60% or the value of IC50 was more than 200 nM.)
CN(C)c1nc(N[C@H]2CC[C@@H](CNC(=O)c3cccc(Cl)c3)CC2)nc2c1CCCC2 [compound 586]	3 (Class 3 The value of percent of control at 10^−7 M was more than 60% or the value of IC50 was more than 200 nM.)
CN(C)c1nc(N[C@H]2CC[C@@H](CNC(=O)c3ccc(Cl)cc3)CC2)nc2c1CCCC2 [compound 587]	3 (Class 3 The value of percent of control at 10^−7 M was more than 60% or the value of IC50 was more than 200 nM.)
CN(C)c1nc(N[C@H]2CC[C@@H](CNC(=O)/C=C/c3ccccc3)CC2)nc2c1CCCC2 [compound 588]	3 (Class 3 The value of percent of control at 10^−7 M was more than 60% or the value of IC50 was more than 200 nM.)
CN(C)c1nc(N[C@H]2CC[C@@H](CNC(=O)c3ccc(Cl)c([N+](=O)[O-])c3)CC2)nc2c1CCCC2 [compound 589]	3 (Class 3 The value of percent of control at 10^−7 M was more than 60% or the value of IC50 was more than 200 nM.)
CN(C)c1nc(N[C@H]2CC[C@@H](CNC(=O)Cc3ccc(Cl)cc3)CC2)nc2c1CCCC2 [compound 590]	3 (Class 3 The value of percent of control at 10^−7 M was more than 60% or the value of IC50 was more than 200 nM.)
CN(C)c1nc(N[C@H]2CC[C@@H](CNC(=O)c3cccc(C#N)c3)CC2)nc2c1CCCC2 [compound 591]	3 (Class 3 The value of percent of control at 10^−7 M was more than 60% or the value of IC50 was more than 200 nM.)
CN(C)c1nc(N[C@H]2CC[C@@H](CNC(=O)c3cc(Cl)cc(Cl)c3)CC2)nc2c1CCCC2 [compound 592]	3 (Class 3 The value of percent of control at 10^−7 M was more than 60% or the value of IC50 was more than 200 nM.)
CN(C)c1nc(N[C@H]2CC[C@@H](CNC(=O)c3ccc(Cl)c(Cl)c3)CC2)nc2c1CCCC2 [compound 593]	3 (Class 3 The value of percent of control at 10^−7 M was more than 60% or the value of IC50 was more than 200 nM.)
CN(C)c1nc(N[C@H]2CC[C@@H](CNC(=O)C(c3ccccc3)c3ccccc3)CC2)nc2c1CCCC2 [compound 594]	3 (Class 3 The value of percent of control at 10^−7 M was more than 60% or the value of IC50 was more than 200 nM.)
CN(C)c1nc(N[C@H]2CC[C@@H](CNC(=O)c3ccc(F)c(F)c3)CC2)nc2c1CCCC2 [compound 595]	3 (Class 3 The value of percent of control at 10^−7 M was more than 60% or the value of IC50 was more than 200 nM.)
CN(C)c1nc(N[C@H]2CC[C@@H](CNC(=O)c3cc(F)cc(F)c3)CC2)nc2c1CCCC2 [compound 596]	3 (Class 3 The value of percent of control at 10^−7 M was more than 60% or the value of IC50 was more than 200 nM.)
COc1ccc(OC)c(CC(=O)NC[C@H]2CC[C@@H](Nc3nc4c(c(N(C)C)n3)CCCC4)CC2)c1 [compound 597]	3 (Class 3 The value of percent of control at 10^−7 M was more than 60% or the value of IC50 was more than 200 nM.)
CCSc1ncccc1C(=O)NC[C@H]1CC[C@@H](Nc2nc3c(c(N(C)C)n2)CCCC3)CC1 [compound 598]	1 (Class 1: The value of percent of control at 10^−7 M was less than 40% or the value of IC50 was less than 50 nM.)
CN(C)c1nc(N[C@H]2CC[C@@H](CNC(=O)c3ccc(F)cc3)CC2)nc2c1CCCC2 [compound 599]	3 (Class 3 The value of percent of control at 10^−7 M was more than 60% or the value of IC50 was more than 200 nM.)
CN(C)c1nc(N[C@H]2CC[C@@H](CNC(=O)c3cc(F)cc(C(F)(F)F)c3)CC2)nc2c1CCCC2 [compound 600]	3 (Class 3 The value of percent of control at 10^−7 M was more than 60% or the value of IC50 was more than 200 nM.)
CN(C)c1nc(N[C@H]2CC[C@@H](CNC(=O)c3cc(F)c(Cl)cc3Cl)CC2)nc2c1CCCC2 [compound 601]	3 (Class 3 The value of percent of control at 10^−7 M was more than 60% or the value of IC50 was more than 200 nM.)

same assay, conditions: class by percent of control at 10^-7 M or IC50

SMILES	class
CCCCCC(=O)NC[C@H]1CC[C@@H](Nc2nc3c(c(N(C)C)n2)CCCC3)CC1 [compound 602]	3 (Class 3 The value of percent of control at 10^−7 M was more than 60% or the value of IC50 was more than 200 nM.)
CN(C)c1nc(N[C@H]2CC[C@@H](CNC(=O)c3ccc(I)cc3)CC2)nc2c1CCCC2 [compound 603]	3 (Class 3 The value of percent of control at 10^−7 M was more than 60% or the value of IC50 was more than 200 nM.)
CSc1ncccc1C(=O)NC[C@H]1CC[C@@H](Nc2nc3c(c(N(C)C)n2)CCCC3)CC1 [compound 604]	3 (Class 3 The value of percent of control at 10^−7 M was more than 60% or the value of IC50 was more than 200 nM.)
Cc1ccc(C(=O)NC[C@H]2CC[C@@H](Nc3nc4c(c(N(C)C)n3)CCCC4)CC2)cc1[N+](=O)[O-] [compound 605]	3 (Class 3 The value of percent of control at 10^−7 M was more than 60% or the value of IC50 was more than 200 nM.)
